Source: publication PMC8807614 (Scientific Reports, 2022)
“Also recorded” adds a separate entry of the source. One block for each compound: values may come before it. Peptide text beside a SMILES is read from it.

Columns and labels:
[1] = target: T1, human prolactin releasing peptide receptor (GPR10) (Homo sapiens, UniProt P49683); test: GPR10 functional activity assay (IP1, HTRF); format: cell-based; settings: Chem-1 cells stably expressing human GPR10, 10.000 cells/well; HTRF IP1 (CisBio); 30 min at 37 °C; IP1 stimulation buffer with 0.05% casein; 11 concentrations
T1 sequence (P49683 1-370): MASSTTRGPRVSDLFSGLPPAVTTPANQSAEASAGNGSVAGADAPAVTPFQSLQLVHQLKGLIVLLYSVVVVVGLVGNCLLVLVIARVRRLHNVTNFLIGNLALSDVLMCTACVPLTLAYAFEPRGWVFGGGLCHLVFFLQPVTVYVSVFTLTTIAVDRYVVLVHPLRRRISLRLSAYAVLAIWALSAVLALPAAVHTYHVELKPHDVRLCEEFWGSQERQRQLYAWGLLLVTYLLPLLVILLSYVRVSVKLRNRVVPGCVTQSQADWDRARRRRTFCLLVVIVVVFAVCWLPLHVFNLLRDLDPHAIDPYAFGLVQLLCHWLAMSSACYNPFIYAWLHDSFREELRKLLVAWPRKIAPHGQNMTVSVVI

human NPFF2R = human NPFF2R (Homo sapiens, UniProt Q9Y5X5); test: NPFF2R functional activity assay (cAMP, HTRF); format: cell-based; settings: CHO-K1 cells stably expressing human NPFF2R, 1500 cells/well; HTRF cAMP (CisBio); 3 µM forskolin (~90% activity level); 30 min; DPBS, 0.5 mM IBMX, 0.05% casein; 11 concentrations
Protocol: Figure 3 GPR10 and NPFF2R profiling of in vivo metabolites of GUB03385. […] (b) cAMP measurements in human NPFF2R CHO-K cells (HTRF technology, CisBio) at a fixed concentration of 3 µM forskolin after 30 min. incubation at room temperature with metabolites and the native peptide NPSF. Representative curves of three determinations.
The Homogenous Time Resolved Fluorescence (HTRF) technology optimized for Gq coupled receptors has thoroughly been described in the CisBio IP1 kit manual (#62IPAPEC) and in the cAMP assay kit manual for Gi coupled receptors (#62AM9PEC). Briefly, this technic is based on a competitive immunoassay using cryptate-labelled anti-cAMP or anti-IP1 antibodies and d2-labeled cAMP or IP1. In the absence of cellular cAMP or IP1, the anti-cryptate conjugate may get into proximity to the d2 conjugate and energy (FRET) can be transferred from cryptate to d2. Chem-1 cells stably expressing the human prolactin releasing peptide receptor (GPR10, Eurofins, # HTS057C) and irradiated CHO-K1 cells stably expressing the human NPFF2R (PerkinElmer, #ES-490-CF) were applied as cells in suspension, brought to life from frozen cell stocks immediately before assay performance. 384-Well (Corning, #4513) assay formats with a total assay volume of 20 µl were applied. GPR10 cells (10.000 cells/well) were incubated with agonist peptides and the NPFF2R cells (1500 cells/well) were incubated with agonist peptides and forskolin (~ 90% activity level) for 30 min at 37 °C using IP1 kit stimulation buffer and DPBS (Sigma, #D8537) containing 0.5 mM IBMX (Sigma, # I5879), receptively. Both stimulation buffers were supplemented with 0.05% casein (Sigma, # C4765-10 ml). After addition of HTRF® detection reagents and incubation with shaking (2400 rpm) for one hour at room temperature signals at 620 and 665 nm (raw counts: ratio of 665/620) were detected at a ClarioStar plate reader (BMG Labtech, Ortenberg, Germany). Concentration–response evaluation of compounds was performed with 11 concentrations of agonist peptides (covering 3 decades) and EC50 values were calculated by nonlinear regression using sigmoid concentration–response with variable slope. Data were analysed using GraphPad v9.1 software (GraphPad, La Jolla, CA).

DIO mice = test: In vivo efficacy of lipidated PrRP31 analogues in DIO mice (body weight, food intake); design: species or system male C57BL/6 J mice
Protocol: For all in vivo studies, male C57BL/6 J mice (5 weeks old, n = 7–8) were purchased from Janvier Labs (Le Genest Saint Isle, France). Individual animals were identified by implantable subcutaneous microchips (PetID Microchip, E-vet, Haderslev, Denmark). Mice were housed in a controlled environment (12 h light/dark cycle, lights on at 3 AM, 21 ± 2 °C, humidity 50 ± 10%) and had ad libitum access to tap water and regular chow (Altromin 1324, Brogaarden, Hørsholm, Denmark) or high-fat diet (60% fat, D12492 Research diet) for up to 47 weeks prior to the initiation of the study. All animal experiments were conducted in accordance to internationally accepted principles for the care and use of laboratory animals. All experiments were approved by The Animal Experimentation Council, Danish Veterinary and Food Administration (license #2013-15-2934-00784) and the Gubra ethics committee. All experiments complied with the ARRIVE guidelines.
Compounds were freshly prepared in vehicle (PBS with 0.1% BSA, pH 4) just prior to dosing. Semaglutide was purchased from Hoersholm Pharmacy (Hoersholm, Denmark). All animals were single housed two weeks prior to treatment and throughout the remaining of the study period. Mice were randomized to treatment according to body weight (n = 7–8 per group) and dosed subcutaneously (SC, 5 ml/kg) for a total of 7 days with vehicle (BID), semaglutide (10 nmol/kg, QD) or peptide analogues (1,250 nmol/kg, BID). All compounds were administered during the light phase. Body weight and food intake (24 h) were measured daily during the treatment period and one week after treatment. In vivo data were subjected to relevant statistical analyses using GraphPad v9.1 software (GraphPad, La Jolla, CA). Statistical evaluation was carried out using Dunnett’s test one-factor linear model (endpoint body weight, food intake, cumulative food intake). A p-value less than 0.05 was considered statistically significant.

[2] = Plasma peptide concentrations 4 h after last dosing in DIO mice; format: in vivo, male C57BL/6 J mice; settings: treatment day 6, 1,250 nmol/kg SC BID
Protocol: (a) Body weight. (b) 24 h food intake. (c) total food intake during treatment phase. (d) total food intake during wash-out phase. (e) Plasma peptide concentrations as measured 4 h after last dosing (treatment day 6). Peptides were administered (SC, BID) at a dose of 1250 nmol/kg (n = 7–8 per group). **p < 0.01, ***p < 0.001 compared to vehicle.
Figure 4 Lipidated metabolites of GUB03385 robustly reduce body weight and food intake in DIO mice. Effect of subchronic treatment (days 0–6) with GUB08248, GUB08251, GUB10194 and GUB10195 followed by 7-day wash-out period (days 7–13, marked in grey). In vivo efficacy was compared to semaglutide (10 nmol/kg, SC, QD, n = 8). (a) Body weight. (b) 24 h food intake. (c) Total food intake during treatment phase. (d) Total food intake during wash-out phase. (e) Plasma peptide concentrations as measured 4 h after last dosing (treatment day 6).
Compounds were freshly prepared in vehicle (PBS with 0.1% BSA, pH 4) just prior to dosing. Semaglutide was purchased from Hoersholm Pharmacy (Hoersholm, Denmark). All animals were single housed two weeks prior to treatment and throughout the remaining of the study period. […] Body weight and food intake (24 h) were measured daily during the treatment period and one week after treatment. […]

[3] = plasma of DIO mice 4 h after last dosing on treatment day 6 (SC, BID); settings: DIO mice (male C57BL/6 J), up to 4 h after last dosing on treatment day 6
[4] = plasma from cardiac blood samples of DIO mice dosed with GUB03385 (SC); settings: DIO mice (male C57BL/6 J), up to 120 min

human NPFF2R, sequence (Q9Y5X5 whole entry): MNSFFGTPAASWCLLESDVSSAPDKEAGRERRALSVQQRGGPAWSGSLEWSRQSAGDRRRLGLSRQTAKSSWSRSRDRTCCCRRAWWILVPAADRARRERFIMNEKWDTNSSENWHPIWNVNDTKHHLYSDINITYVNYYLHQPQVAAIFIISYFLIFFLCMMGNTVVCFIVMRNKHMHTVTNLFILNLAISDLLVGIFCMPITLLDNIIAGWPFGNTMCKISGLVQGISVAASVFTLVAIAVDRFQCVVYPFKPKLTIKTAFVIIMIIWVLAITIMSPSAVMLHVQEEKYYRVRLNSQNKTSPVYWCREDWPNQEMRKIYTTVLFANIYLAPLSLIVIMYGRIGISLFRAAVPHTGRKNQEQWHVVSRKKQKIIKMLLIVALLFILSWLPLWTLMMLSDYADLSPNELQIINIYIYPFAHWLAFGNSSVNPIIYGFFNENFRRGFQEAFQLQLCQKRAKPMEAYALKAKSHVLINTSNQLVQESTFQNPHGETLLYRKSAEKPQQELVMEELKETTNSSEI

Compound: CCCCCCCCCCCCCCCC(=O)N[C@@H](CCC(=O)NCCCC[C@H](NC(=O)[C@@H](NC(=O)[C@H](CCC(=O)O)NC(=O)[C@H](CCSC)NC(=O)[C@H](CO)NC(=O)[C@H](Cc1c[nH]cn1)NC(=O)[C@H](CCCNC(=N)N)NC(=O)[C@H](Cc1c[nH]cn1)NC(=O)[C@@H](NC(=O)[C@H](CCCNC(=N)N)NC(=O)[C@@H](N)CO)[C@@H](C)O)[C@@H](C)CC)C(=O)N[C@H](C(=O)N1CCC[C@H]1C(=O)N[C@@H](CC(=O)O)C(=O)N[C@H](C(=O)N[C@@H](CC(N)=O)C(=O)N1CCC[C@H]1C(=O)N[C@@H](C)C(=O)N[C@@H](Cc1c[nH]c2ccccc12)C(=O)N[C@@H](Cc1ccc(O)cc1)C(=O)N[C@@H](C)C(=O)N[C@@H](CO)C(=O)N[C@@H](CCCNC(=N)N)C(=O)NCC(=O)N[C@H](C(=O)N[C@@H](CCCNC(=N)N)C(=O)N1CCC[C@H]1C(=O)N[C@H](C(=O)NCC(=O)N[C@@H](CCCNC(=N)N)C(=O)N[C@@H](Cc1ccccc1)C(N)=O)C(C)C)[C@@H](C)CC)[C@@H](C)CC)[C@@H](C)O)C(=O)O [GUB02647] (HELM PEPTIDE1{S.R.T.H.R.H.S.M.E.I.K.T.P.D.I.N.P.A.W.Y.A.S.R.G.I.R.P.V.G.R.F.[am]}|PEPTIDE2{[CCCCCCCCCCCCCCCC(=O)[*:2]].[gGlu]}$PEPTIDE1,PEPTIDE2,11:R3-2:R2$$$V2.0)
EC50 [1]: 0.3 nM | EC50 (human NPFF2R): 147 nM | effect on food intake (DIO mice; 1,250 nmol/kg SC BID days 0-6, wash-out days 7-13, 24 h food intake measured daily): significantly suppressed food intake during the treatment period, but not in the wash-out phase | body weight loss, day 7 (DIO mice; 1,250 nmol/kg SC BID for 7 days (days 0-6), after last dosing, n = 7-8 per group): 11.8 ± 1.0% | body weight loss, day 13 (DIO mice; 1,250 nmol/kg SC BID for 7 days, then 7-day wash-out, n = 7-8 per group): 8.1 ± 1.0% | weight loss (as summarised in discussion) (DIO mice; subchronic SC treatment with 1,250 nmol/kg BID, time point not stated): 8% | plasma exposure 4 h after last dosing [2]: not detected in plasma; also recorded: undetectable in plasma

fragment found [3]: GUB08251
Compound: SRGK*RPVGRF (K* lipid chain: C18 γE OEG OEG)

fragment found [3]: GUB10195
Compound: SRGK*RPVGRF (K* lipid chain: C18DA γE OEG OEG)

Compound: SRTHRHSMEIRTPDINPAWYASRGK*RPVGRF (K* lipid chain: C18 γE OEG OEG; C-terminally amidated)
fragment found [4]: GUB08247: ASRGK*RPVG (C18 γE OEG OEG), major, 30 min; also recorded: GUB08248: SRGK*RPVGRF (C18 γE OEG OEG), major, 30 min; also recorded: GUB08249: SRGK*RPVG (C18 γE OEG OEG), major, 30 min; also recorded: GUB08250: SRGK*RPV (C18 γE OEG OEG), major, 30 min; also recorded: GUB08251: GK*RPVGRF (C18 γE OEG OEG), major, 60 min; also recorded: GUB08252: K*RPVGR (C18 γE OEG OEG), major, 60 min; also recorded: GUB08253: K*RPVG (C18 γE OEG OEG), major, 60 min; also recorded: GUB08254: K*RPV (C18 γE OEG OEG), major, 60 min
